Like-named read-outs stand apart in the source and are kept apart here.
Experiments:
CYP1A2 [1] = target: T1, CYP1A2 (Sus scrofa, UniProt F1SJ26); test: Inhibition of 7-methoxyresorufin O-demethylase (MROD) activity in porcine hepatic microsomes
T1 sequence (F1SJ26 1-516): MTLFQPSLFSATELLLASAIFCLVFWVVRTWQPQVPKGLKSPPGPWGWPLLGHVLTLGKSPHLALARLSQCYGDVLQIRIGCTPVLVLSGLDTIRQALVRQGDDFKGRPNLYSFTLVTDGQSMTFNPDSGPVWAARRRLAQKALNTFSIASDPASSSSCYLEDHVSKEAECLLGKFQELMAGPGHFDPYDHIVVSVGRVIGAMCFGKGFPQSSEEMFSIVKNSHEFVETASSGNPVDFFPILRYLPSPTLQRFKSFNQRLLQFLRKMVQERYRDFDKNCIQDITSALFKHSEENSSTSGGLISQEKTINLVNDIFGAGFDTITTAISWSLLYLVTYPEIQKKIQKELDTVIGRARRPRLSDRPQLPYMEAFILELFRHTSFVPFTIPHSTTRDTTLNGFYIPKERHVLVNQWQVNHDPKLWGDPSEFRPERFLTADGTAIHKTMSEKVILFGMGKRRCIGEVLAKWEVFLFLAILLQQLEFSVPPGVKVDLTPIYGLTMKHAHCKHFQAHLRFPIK
Description: (§1) All procedures were done on ice.
(§2) All steroids were dissolved in methanol. […] Kinetic studies were performed under linear conditions.
(§3) The activities were measured in pooled microsomes, thus taking into consideration between-individual variations in enzyme activities and potential response to the presence of steroids.

CYP2E1 [2] = target: T2, CYP2E1 (Sus scrofa, UniProt P79383); test: Inhibition of p-nitrophenol hydroxylase (PNPH) activity in porcine hepatic microsomes
Description: as §1, §2, §3

CYP1A1 [3] = test: Inhibition of 7-ethoxyresorufin O-deethylase (EROD) activity in porcine hepatic microsomes
Description: as §1, §2, §3

CYP1A1 [4] = test: Enzyme kinetic analysis of EROD (resorufin formation from 7-ethoxyresorufin) in porcine hepatic microsomes; assay type: in vitro ADME; settings: CI 95% confidence interval
Description: as §1, §2
V=(Vmax1*S)/(Km1+S)+(V max2*S)/(Km2+S),
where Km1 and Km2 are Michaelis constants for the high- and low-affinity components, respectively, and Vmax1 and Vmax2 are the maximum reaction velocities for the high- and low-affinity components, respectively.

CYP1A2 [5] = target: T1, CYP1A2
Description: as §1, §2

CYP1A1 [6] = system: CYP1A1; design: method as in Zamaratskaia et al., [2009]; settings: 1.8 to 72 pmol/ml; microsomes from entire and castrated male pigs; ref Zamaratskaia et al., [2009]; cited from earlier work
CYP2E1 [7] = target: T2, CYP2E1; settings: cited from earlier work
[8] = steroid 0.55, 1.0 and 100.0 µM, pooled microsomes from entire male pigs
[9] = all concentrations tested (up to 100.0 µM), microsomes from mature male pigs
[10] = 100 µM steroid, pooled microsomes from three entire male pigs, altered = differs from control by at least 30%
[11] = lower concentrations (0.02 and 1.0 µM), pooled microsomes from entire male pigs

T2 sequence (P79383 whole entry): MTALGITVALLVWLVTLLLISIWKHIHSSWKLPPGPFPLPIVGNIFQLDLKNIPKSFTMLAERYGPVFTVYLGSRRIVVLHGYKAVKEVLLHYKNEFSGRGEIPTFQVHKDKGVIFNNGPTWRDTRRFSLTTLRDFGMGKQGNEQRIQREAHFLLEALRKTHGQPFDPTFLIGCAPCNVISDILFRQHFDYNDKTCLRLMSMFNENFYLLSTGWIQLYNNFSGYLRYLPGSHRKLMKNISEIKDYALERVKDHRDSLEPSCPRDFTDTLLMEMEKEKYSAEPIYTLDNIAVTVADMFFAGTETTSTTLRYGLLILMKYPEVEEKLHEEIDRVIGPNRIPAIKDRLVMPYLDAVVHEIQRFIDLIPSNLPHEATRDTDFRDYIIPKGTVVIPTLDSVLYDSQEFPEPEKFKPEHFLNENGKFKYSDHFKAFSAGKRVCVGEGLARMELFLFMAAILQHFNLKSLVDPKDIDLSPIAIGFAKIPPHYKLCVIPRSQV

C[C@]12CC[C@H](O)C[C@@H]1CC[C@@H]1[C@@H]2CC[C@]2(C)C=CC[C@@H]12 [3β-androstenol]
Inhibition of MROD activity (CYP1A2 [1]; [8]): only 17β-estradiol and 17α-estradiol inhibited | Inhibition of PNPH activity (CYP2E1 [2]; [9]): inhibited only by 100 µM of 17β-estradiol | Inhibition of EROD activity (CYP1A1 [3]; [8]): only 17β-estradiol and 17α-estradiol inhibited

CCOc1ccc2nc3ccc(=O)cc-3oc2c1 [7-ethoxyresorufin]
Km (CYP1A1 [4]; high affinity component): 0.01 µM | Km (CYP1A1 [4]; low affinity component): 1.7 µM | Vmax, pmol/min/mg (CI) (CYP1A1 [4]; low affinity component): 15.2 (9.64–20.71) pmol/min/mg

COc1ccc2nc3ccc(=O)cc-3oc2c1 [7-methoxy-resorufin, 7-methoxyresorufin]
Km (CYP1A2 [5]): 0.13 µM

C[C@]12CC[C@@H]3c4ccc(O)cc4CC[C@H]3[C@@H]1CC[C@H]2O [17α-estradiol]
Inhibition of MROD activity (CYP1A2 [1]; [10]): inhibited | Inhibition of MROD activity (CYP1A2 [1]; [11]): no inhibitory effect | Inhibition of PNPH activity (CYP2E1 [2]; [9]): inhibited only by 100 µM of 17β-estradiol | Inhibition of EROD activity (CYP1A1 [3]; [10]): inhibited | Inhibition of EROD activity (CYP1A1 [3]; [11]): no inhibitory effect

C[C@]12CC[C@@H]3c4ccc(O)cc4CC[C@H]3[C@@H]1CC[C@@H]2O [17β-estradiol]
Inhibition of MROD activity (CYP1A2 [1]; [10]): inhibited | Inhibition of MROD activity (CYP1A2 [1]; [11]): no inhibitory effect | Effect on EROD activity (CYP1A1 [6]): did not alter | Inhibition of PNPH activity (CYP2E1 [2]; 100 µM steroid, pooled microsomes from three mature entire male pigs): Inhibition of PNPH activity was observed | Inhibition of PNPH activity (CYP2E1 [2]; lower concentrations (0.02 and 1.0 µM), microsomes from mature male pigs): observed only in the presence of high concentrations | Inhibition of EROD activity (CYP1A1 [3]; [10]): inhibited | Inhibition of EROD activity (CYP1A1 [3]; [11]): no inhibitory effect | Type of inhibition of PNPH (CYP2E1 [7]; microsomes from prepubertal male pigs, ref Zamaratskaia et al. ([2007])): mixed inhibitor | Inhibition of PNPH activity (CYP2E1 [7]; physiological concentrations, ref Rasmussen et al. (2010a)): inhibit

C[C@]12CCC(=O)C[C@@H]1CC[C@@H]1[C@@H]2CC[C@]2(C)[C@@H](O)CC[C@@H]12 [DHT, dihydrotestosterone]
Magnitude of MROD inhibition (CYP1A2 [1]; steroid 0.55, 1.0 and 100.0 µM, relative to control incubations): ≤ 30% | Inhibition of PNPH activity (CYP2E1 [2]; [9]): inhibited only by 100 µM of 17β-estradiol | Inhibition of EROD activity (CYP1A1 [3]; [8]): only 17β-estradiol and 17α-estradiol inhibited
